The source of these data is patent publication US8785470B2, “Heterocyclic compounds and uses thereof” (Infinity Pharmaceuticals, Inc., priority 2011, dated 2014).

Where two headings read alike, the source gives them in different places.

Data set [1] concerns leukemic cells from p190 transduced cultures. Particulars: about 70 mg/kg twice daily; cited from earlier work.
Data set [2] concerns phospho-AKT in SKOV-3 cells (PI3Kα). Briefly: PI3Kα selective assay, phospho-AKT in SKOV-3 cells. Particulars: Homo sapiens, SK-OV-3, read-out: IC50 for phospho-AKT, SKOV-3 cell model. Type of data set: cell-based. The source says: A compound's ability in selectively inhibiting PI3Kα can be assessed using SKOV-3 cells, i.e., human ovarian carcinoma cell line. Briefly, SKOV-3 cells, in which mutant PI3Kα is constitutively active, can be treated with test compounds. Test compounds' ability to inhibit AKT phosphorylation in SKOV-3 cells, therefore, is indicative of selective inhibition of PI3Kα. Thus, by monitoring the reduction of phospho-AKT in SKOV-3 cells (using for example, phospho-AKT antibodies), a compound's potential efficacy in selectively inhibiting PI3Kα can be assessed.
Certain compounds provided herein (e.g., Compounds 5, 49, 138, 326, 328, 354, 359, 389, and 391) were tested in SKOV-3 cell model using procedures as described above.

The test system of data set [3] is phospho-AKT in RAJI cells (PI3Kδ). Put plainly: PI3Kδ selective assay, phospho-AKT in RAJI cells. In kind it is cell-based. The note with it: RAJI cells stimulated with anti-human IgM; read-out: IC50 for phospho-AKT, RAJI cell model. A digest of the protocol:
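Serum-starved RAJI B-lymphoma cells stimulated with anti-human IgM to trigger B-cell receptor signaling; compound effect read as reduction of phospho-AKT, for example detected with phospho-AKT antibodies.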

Data set [4] has as its system phospho-AKT in 786-O cells (PI3Kβ). Put plainly: PI3Kβ selective assay, phospho-AKT in 786-O cells. Type of data set: cell-based. Particulars: Homo sapiens, 786-0; ranges between 1 μM and 10 μM and greater than 10 μM; read-out: IC50 for phospho-AKT, 786-O cell model. From the text:
A compound's ability in selectively inhibiting PI3Kβ can be assessed using 786-O cells, i.e., human kidney carcinoma cell line. Briefly, 786-O cells, in which PI3Kβ is constitutively active, can be treated with test compounds. Test compounds' ability to inhibit AKT phosphorylation in 786-O cells, therefore, is indicative of selective inhibition of PI3β. Thus, by monitoring the reduction of phospho-AKT in 786-O cells (using for example, phospho-AKT antibodies), a compound's potential efficacy in selectively inhibiting PI3Kβ can be assessed.
Certain compounds provided herein (e.g., Compounds 5, 49, 138, 326, 328, 354, 359, 389, and 391) were tested in 786-O cell model using procedures as described above.

The subject of data set [5] is phospho-AKT in RAW 264.7 cells (PI3Kγ). Put plainly: PI3Kγ selective assay, phospho-AKT in RAW 264.7 cells. In kind it is cell-based. The note with it: Mus musculus, RAW264.7, stimulated with C5a, read-out: IC50 for phospho-AKT, RAW 264.7 cell model. A digest of the protocol: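 Serum-starved RAW 264.7 macrophages are stimulated with the GPCR agonist C5a and treated with compound before, with or after stimulation. Inhibition is read as reduced C5a-induced phospho-AKT, detected for example with phospho-AKT antibodies.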

Another data set addresses T1, PI3Kδ (Homo sapiens, UniProt O00329).
T1 construct: purchased Millipore Corporation 14-604-K
Briefly: PI3-Kinase HTRF assay, PI3Kδ. Type of data set: biochemical. Particulars: bins Greater than 10 μM and Greater than 1 μM to 10 μM; 10 μM ATP, PIP2 at 10 μM. From the text: (§1) A PI3-Kinase HTRF® assay kit (cat No. 33-016) purchased from Millipore Corporation was used to screen compounds provided herein. This assay used specific, high affinity binding of the GRPI pleckstrin homology (PH) domain to PIP3, the product of a Class 1A or 1B PI3 Kinase acting on its physiological substrate PIP2. During the detection phase of the assay, a complex was generated between the GST-tagged PH domain and biotinylated short chain PIP3. The biotinylated PIP3 and the GST-tagged PH domain recruited fluorophores (Streptavidin-Allophycocyanin and Europium-labeled anti-GST respectively) to form the fluorescence resonance energy transfer (FRET) architecture, generating a stable time-resolved FRET signal. The FRET complex was disrupted in a competitive manner by non-biotinylated PIP3, a product formed in the PI3 Kinase assay.
(§2) PI3 Kinase α, β, γ and δ activity was assayed using the PI3 Kinase HTRF® assay kit (catalogue No. 33-016) purchased from Millipore Corporation. Purified recombinant PI3Kα (catalogue No. 14-602-K), PI3Kβ (catalogue No. 14-603-K), PI3Kγ (catalogue No. 14-558-K) and PI3Kδ (catalogue No. 14-604-K) were obtained from Millipore Corporation. Purified recombinant PI3K enzyme was used to catalyze the phosphorylation of phosphatidylinositol 4,5-bisphosphate (PIP2 at 10 μM) to phosphatidylinositol 3,4,5-trisphosphate (PIP3) in the presence of 10 μM ATP. The assay was carried out in 384-well format and detected using a Perkin Elmer EnVision Xcite Multilabel Reader. Emission ratios were converted into percent inhibitions and imported into GraphPad Prism software. The concentration necessary to achieve inhibition of enzyme activity by 50% (IC50) was calculated using concentrations ranging from 20 μM to 0.1 nM (12-point curve). IC50 values were determined using a nonlinear regression model available in GraphPad Prism 5. […]
In general terms: Time-resolved FRET reads energy transfer from a long-lived donor to a nearby acceptor.

A further data set has as its target T2, PI3Kβ (Homo sapiens, UniProt P42338).
T2 construct: purchased Millipore Corporation 14-603-K
Put plainly: PI3-Kinase HTRF assay, PI3Kβ. The note with it: bins Greater than 10 μM and Greater than 1 μM to 10 μM; 10 μM ATP, PIP2 at 10 μM. Type of data set: biochemical. A digest of the protocol: (§3)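 Purified recombinant human PI3Kα, β, γ or δ (0.25-0.3 μg/ml) preincubated 15 min at room temperature with compound (2% DMSO) and 10 μM PIP2, then reacted 1 h with 10 μM ATP. PIP3 product detected by competitive HTRF (GST-PH domain/biotin-PIP3); IC50 from 12-point curves, 20 μM to 0.1 nM, by nonlinear regression.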

A further data set concerns the target T3, PI3Kα (Homo sapiens, UniProt P42336).
T3 construct: purchased Millipore Corporation 14-602-K
Briefly: PI3-Kinase HTRF assay, PI3Kα. In kind it is biochemical. Particulars: bins Greater than 10 μM and Greater than 1 μM to 10 μM; 10 μM ATP, PIP2 at 10 μM; read-out: IC50 P13Kα. A digest of the protocol:
as §3

The subject of another data set is B6.Slez.Sle3z model. Particulars: cited from earlier work.
The conditions of data set [6]: control or reference compounds, 5 μM; cited from earlier work.
For another data set, the target named is T4, PI3Kγ (Homo sapiens, UniProt P48736).
T4 construct: purchased Millipore Corporation 14-558-K
Put plainly: PI3-Kinase HTRF assay, PI3Kγ. Particulars: bins Greater than 10 μM and Greater than 1 μM to 10 μM; 10 μM ATP, PIP2 at 10 μM. In kind it is biochemical.
Description: as §1, §2

For a further data set, the system named is NZB/W model. The note with it: profilactic and therapeutic model; reductions in auto-antibody production, kidney damage, improvements in survival; cited from earlier work.
For data set [7] the following is noted: PBS at pH 7.4, 37° C., 24 hours; cited from earlier work.
The mark [8] stands for this setting: range between 100 nM and 1 μM (given as 100-1000).
Where [9] appears, read: ranges less than 100 nM and between 100 nM and 1 μM (given as 100-1000).

T2 sequence (P42338 whole entry): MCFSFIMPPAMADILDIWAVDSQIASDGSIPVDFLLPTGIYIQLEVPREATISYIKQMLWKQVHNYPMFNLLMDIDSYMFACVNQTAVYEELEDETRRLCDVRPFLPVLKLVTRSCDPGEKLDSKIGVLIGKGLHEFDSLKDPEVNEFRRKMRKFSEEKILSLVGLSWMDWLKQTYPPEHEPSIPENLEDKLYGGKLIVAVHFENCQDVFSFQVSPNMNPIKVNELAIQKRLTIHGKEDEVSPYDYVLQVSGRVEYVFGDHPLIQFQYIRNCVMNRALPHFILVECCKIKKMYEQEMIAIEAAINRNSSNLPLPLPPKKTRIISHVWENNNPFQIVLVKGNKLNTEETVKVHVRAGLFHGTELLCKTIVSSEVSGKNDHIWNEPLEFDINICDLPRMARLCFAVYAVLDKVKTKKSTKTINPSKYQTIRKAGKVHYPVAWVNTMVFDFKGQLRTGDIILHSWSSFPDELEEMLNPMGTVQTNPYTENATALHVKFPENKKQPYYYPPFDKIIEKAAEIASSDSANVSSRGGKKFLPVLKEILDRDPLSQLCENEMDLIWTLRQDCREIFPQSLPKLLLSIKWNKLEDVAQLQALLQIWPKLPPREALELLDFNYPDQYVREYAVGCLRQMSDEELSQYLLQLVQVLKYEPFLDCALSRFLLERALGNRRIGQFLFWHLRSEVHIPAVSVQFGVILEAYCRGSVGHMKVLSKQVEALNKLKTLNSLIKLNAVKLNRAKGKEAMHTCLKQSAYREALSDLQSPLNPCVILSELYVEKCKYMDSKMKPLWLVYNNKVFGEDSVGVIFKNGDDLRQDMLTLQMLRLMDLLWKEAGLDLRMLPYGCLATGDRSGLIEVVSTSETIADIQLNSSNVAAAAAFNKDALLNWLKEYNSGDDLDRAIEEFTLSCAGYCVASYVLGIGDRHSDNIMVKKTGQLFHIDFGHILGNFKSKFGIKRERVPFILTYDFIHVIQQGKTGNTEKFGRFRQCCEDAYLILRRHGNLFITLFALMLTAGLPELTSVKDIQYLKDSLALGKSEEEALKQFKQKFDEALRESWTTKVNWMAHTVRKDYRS
T2 sequence (P27986 whole entry partner): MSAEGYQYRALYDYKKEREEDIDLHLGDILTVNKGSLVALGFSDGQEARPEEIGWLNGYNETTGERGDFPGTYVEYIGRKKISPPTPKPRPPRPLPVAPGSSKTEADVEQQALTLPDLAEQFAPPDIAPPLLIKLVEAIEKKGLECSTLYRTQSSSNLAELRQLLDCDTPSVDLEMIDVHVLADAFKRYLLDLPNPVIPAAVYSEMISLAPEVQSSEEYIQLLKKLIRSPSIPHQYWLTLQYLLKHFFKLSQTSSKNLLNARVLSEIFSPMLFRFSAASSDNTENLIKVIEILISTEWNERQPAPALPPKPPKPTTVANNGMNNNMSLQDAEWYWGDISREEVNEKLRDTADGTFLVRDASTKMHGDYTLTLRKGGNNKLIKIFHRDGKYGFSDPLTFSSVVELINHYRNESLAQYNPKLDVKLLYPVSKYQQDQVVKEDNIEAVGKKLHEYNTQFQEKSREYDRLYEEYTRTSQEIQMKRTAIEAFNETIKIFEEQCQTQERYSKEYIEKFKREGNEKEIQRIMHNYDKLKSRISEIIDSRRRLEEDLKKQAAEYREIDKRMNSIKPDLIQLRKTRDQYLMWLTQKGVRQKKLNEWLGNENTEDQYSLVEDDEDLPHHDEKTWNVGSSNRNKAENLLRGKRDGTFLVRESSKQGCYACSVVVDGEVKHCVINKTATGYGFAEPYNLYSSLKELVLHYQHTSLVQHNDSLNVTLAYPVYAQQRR
T4 sequence (P48736 whole entry): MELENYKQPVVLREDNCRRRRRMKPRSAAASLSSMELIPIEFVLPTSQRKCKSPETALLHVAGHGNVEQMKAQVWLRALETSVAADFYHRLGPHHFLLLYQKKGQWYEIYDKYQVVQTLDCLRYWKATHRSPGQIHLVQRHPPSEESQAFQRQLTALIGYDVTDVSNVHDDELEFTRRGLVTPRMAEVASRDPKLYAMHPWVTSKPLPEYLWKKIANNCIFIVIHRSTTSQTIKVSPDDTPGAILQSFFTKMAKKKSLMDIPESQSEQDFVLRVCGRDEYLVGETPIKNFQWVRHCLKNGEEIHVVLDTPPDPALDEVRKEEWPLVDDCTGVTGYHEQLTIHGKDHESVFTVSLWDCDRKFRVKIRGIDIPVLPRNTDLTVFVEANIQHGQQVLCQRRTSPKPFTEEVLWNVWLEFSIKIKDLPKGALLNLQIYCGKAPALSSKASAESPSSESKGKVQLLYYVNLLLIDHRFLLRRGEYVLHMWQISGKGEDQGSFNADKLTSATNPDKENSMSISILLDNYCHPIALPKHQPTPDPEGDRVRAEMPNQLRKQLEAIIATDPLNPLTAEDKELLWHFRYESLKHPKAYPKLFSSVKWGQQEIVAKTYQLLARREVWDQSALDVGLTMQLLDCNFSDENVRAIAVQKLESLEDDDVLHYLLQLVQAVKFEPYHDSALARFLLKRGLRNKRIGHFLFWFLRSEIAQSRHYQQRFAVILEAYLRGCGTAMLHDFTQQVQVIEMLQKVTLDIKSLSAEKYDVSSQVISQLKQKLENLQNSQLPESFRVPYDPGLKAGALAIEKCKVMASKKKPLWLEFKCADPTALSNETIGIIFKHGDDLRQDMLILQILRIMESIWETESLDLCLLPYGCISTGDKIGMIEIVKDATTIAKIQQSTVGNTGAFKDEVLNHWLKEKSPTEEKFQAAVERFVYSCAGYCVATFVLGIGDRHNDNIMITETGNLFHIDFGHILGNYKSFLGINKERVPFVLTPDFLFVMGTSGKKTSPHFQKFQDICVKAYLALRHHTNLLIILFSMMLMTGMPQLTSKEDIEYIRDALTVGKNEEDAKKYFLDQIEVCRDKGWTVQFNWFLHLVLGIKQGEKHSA
T1 sequence (O00329 whole entry): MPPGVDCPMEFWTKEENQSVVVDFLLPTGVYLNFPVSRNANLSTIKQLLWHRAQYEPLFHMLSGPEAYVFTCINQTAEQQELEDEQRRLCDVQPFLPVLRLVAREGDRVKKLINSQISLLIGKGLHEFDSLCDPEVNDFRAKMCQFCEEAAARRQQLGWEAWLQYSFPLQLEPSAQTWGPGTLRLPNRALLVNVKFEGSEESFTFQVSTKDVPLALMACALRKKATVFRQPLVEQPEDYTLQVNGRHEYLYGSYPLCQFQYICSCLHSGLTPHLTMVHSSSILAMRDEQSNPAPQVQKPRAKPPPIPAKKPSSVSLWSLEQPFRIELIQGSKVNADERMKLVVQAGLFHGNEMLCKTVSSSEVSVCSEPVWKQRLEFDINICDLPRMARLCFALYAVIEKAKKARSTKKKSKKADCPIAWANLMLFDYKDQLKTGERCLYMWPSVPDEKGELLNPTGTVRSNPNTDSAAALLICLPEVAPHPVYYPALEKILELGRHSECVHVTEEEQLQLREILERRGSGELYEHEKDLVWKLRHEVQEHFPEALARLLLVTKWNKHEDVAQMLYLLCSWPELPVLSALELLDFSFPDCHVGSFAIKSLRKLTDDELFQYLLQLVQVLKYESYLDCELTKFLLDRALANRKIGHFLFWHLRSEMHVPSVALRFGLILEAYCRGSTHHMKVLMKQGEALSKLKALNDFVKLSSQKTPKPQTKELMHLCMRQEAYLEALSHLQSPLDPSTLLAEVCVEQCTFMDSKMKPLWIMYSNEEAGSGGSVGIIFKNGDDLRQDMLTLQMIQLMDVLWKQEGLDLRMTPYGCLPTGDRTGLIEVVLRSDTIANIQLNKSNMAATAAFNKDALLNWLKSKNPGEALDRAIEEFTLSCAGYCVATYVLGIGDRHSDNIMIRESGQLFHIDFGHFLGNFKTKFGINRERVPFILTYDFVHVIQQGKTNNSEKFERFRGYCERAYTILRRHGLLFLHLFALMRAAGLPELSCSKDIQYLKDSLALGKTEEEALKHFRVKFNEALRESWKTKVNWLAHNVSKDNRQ
T1 sequence (P27986 whole entry partner): as the sequence (P27986 whole entry partner) above
T3 sequence (P42336 whole entry): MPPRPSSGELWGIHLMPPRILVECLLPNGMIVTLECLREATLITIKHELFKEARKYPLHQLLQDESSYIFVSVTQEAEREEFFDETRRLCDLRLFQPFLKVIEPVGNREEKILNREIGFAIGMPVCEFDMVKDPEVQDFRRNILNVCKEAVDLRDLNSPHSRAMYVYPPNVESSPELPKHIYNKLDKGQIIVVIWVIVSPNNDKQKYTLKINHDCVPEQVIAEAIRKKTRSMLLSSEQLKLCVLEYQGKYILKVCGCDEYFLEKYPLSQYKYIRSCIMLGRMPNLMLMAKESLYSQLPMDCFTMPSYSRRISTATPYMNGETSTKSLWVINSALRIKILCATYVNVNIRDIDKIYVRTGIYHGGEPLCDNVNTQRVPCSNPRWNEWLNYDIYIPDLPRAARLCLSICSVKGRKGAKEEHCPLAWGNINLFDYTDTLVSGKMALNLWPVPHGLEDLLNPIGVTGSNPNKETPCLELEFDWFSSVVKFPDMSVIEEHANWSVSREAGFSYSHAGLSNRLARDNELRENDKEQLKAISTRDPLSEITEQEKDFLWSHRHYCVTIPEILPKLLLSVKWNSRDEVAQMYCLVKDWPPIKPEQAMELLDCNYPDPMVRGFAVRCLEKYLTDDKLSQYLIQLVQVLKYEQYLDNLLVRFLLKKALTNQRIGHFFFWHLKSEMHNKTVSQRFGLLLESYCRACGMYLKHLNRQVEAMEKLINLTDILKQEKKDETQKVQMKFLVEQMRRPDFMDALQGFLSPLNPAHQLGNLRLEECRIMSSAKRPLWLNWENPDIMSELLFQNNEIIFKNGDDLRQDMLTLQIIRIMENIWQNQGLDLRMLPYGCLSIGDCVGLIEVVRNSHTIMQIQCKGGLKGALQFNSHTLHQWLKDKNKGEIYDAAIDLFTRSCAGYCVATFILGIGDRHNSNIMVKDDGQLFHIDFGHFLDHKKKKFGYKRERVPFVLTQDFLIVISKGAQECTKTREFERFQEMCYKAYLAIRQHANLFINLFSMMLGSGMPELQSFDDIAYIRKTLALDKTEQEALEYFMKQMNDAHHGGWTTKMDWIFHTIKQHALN
T3 sequence (P27986 whole entry partner): as the sequence (P27986 whole entry partner) above

On to `Cc1ccc(NC(=O)c2ccc(CN3CCN(C)CC3)cc2)cc1Nc1nccc(-c2cccnc2)n1` [imatinib], for which, in [1], the leukemogenesis entry was “delay but not cure leukemogenesis”.
Consider `C[C@H](Nc1nc(N)ncc1C#N)c1cc2cccc(Cl)c2c(C(=O)NC2CCOCC2)n1` [Compound 354], for which the IC50 (commonly the concentration that gives 50% inhibition) in [2] (ranges between 1 μM and 10 μM and greater than 10 μM) was over 10 µM; in [3] it was under 0.1 µM; in data set [4], 1 to 10 µM; in [5] (range between 1 μM and 10 μM), 1 to 10 µM; against PI3Kδ it was 1 to 10 µM.
For `CCOc1nc(-c2cnc(N)nc2N[C@@H](C)c2cc3cccc(-c4ccc(=O)n(C)c4)c3c(=O)n2-c2ccccc2)cs1` [Compound 138], the IC50 was 0.1 to 1 µM in data set [2] (setting [8]); under 0.1 µM in [3]; 1 to 10 µM in data set [4]; 1 to 10 µM against PI3Kβ; 1 to 10 µM on PI3Kα; under 0.1 µM in [5] (setting [9]).
For the compound `CO[C@H]1C[C@@H]2CC[C@@H](C)[C@@](O)(O2)C(=O)C(=O)N2CCCC[C@H]2C(=O)O[C@H]([C@H](C)C[C@@H]2CC[C@@H](OCCO)[C@H](OC)C2)CC(=O)[C@H](C)/C=C(\C)[C@@H](O)[C@@H](OC)C(=O)[C@H](C)C[C@H](C)/C=C/C=C/C=C/1C` [RAD001, everolimus], the lupus symptoms result with B6.Slez.Sle3z model was “ameliorate lupus symptoms”.
For the compound `CC(C)[N+](C)(CCOC(=O)C1c2ccccc2Oc2ccccc21)C(C)C` [propantheline], the plasma stability entry in data set [6] was “intermediate plasma stability”.
As for `Cc1ncc(-c2cccc3cc([C@H](C)Nc4nc(N)ncc4C#N)n(C(C)C)c(=O)c23)cn1` [Compound 328], the IC50 in data set [2] (setting [8]) was 0.1 to 1 µM; in data set [3], under 0.1 µM; in data set [4], 1 to 10 µM; in data set [5] (setting [9]) it was 0.1 to 1 µM; at PI3Kγ it was 1 to 10 µM.
Turning to `CC(C)C[C@H](NC(=O)[C@H](Cc1ccccc1)NC(=O)c1cnccn1)B(O)O` [Bortezimib, bortezomib], in the data set with NZB/W model, the “blocking disease in the NZB/W model” value was “effective at blocking disease”.
As for `CCCOc1cc(N)ccc1C(=O)OCCN(CC)CC` [propoxycaine], the plasma stability result in data set [6] is reported as “low plasma stability”.
`O=C(O)CCCc1ccc(N(CCCl)CCCl)cc1` [chlorambucil]: in data set [7], the chemical stability result is listed as “largely hydrolyzed”.
